The target of experiment [1] is T1, PfHAD2 (HAD2, 6×His-HAD2) (Plasmodium falciparum, UniProt Q8I5F4).
T1 construct: gene PF3D7_1226300; native mass about 33 kDa
The experiment in a line: EnzChek phosphate release assay (MESG/PNP coupled). It is filed as biochemical. The conditions noted are these: 5 mM substrate, 730 nM enzyme, 20 mM MgCl2, 50 mM Tris-HCl pH 8.0; normalised to D26A mutant.

Experiment [2] addresses T1, PfHAD2 (HAD2, 6×His-HAD2). The experiment in a line: continuous absorbance at […] nm. It is filed as biochemical. The conditions noted are these: 10 mM pNPP, 1.2 µM enzyme, 5 mM MgCl2, 50 mM Tris-HCl pH 7.5, 37°C.

Structures are written as SMILES.

Regarding `O=P(O)(O)OC(CO)CO` [glycerol 2-phosphate], in experiment [1], the “EnzChek phosphate release assay (MESG/PNP coupled)” value is “PfHAD2 is a phosphatase with activity against small phosphosubstrates, such as glc2P”. As to `O=[N+]([O-])c1ccc(OP(=O)(O)O)cc1` [para-nitrophenyl phosphate], the “continuous absorbance at 405 nm” value in experiment [2] is recorded as “confirmed the phosphatase activity of recombinant PfHAD2 using para-nitrophenyl phosphate (pNPP)”.

These data come from article PMC6234871 (mBio, 2018).
